Results as given in patent publication US7179800B2 (priority 2002, dated 2007).

How the values were obtained:
[1] = target: CB1 receptor (Rattus norvegicus, UniProt P20272); test: CB1 binding procedure: displacement of [3H]CP 55,940 from rat whole-brain P2 membranes; design: whole brain was homogenized and centrifuged; from tissue; host or cells: rat whole brain, P2 membrane fraction; settings: means ± SEM; [3H]CP 55,940, rat brain membranes; read-out: Ki (nM) CB1
Method: (§1) Male ICR mice (25–32 g), obtained from Harlan (Dublin, Va.), were housed in groups of five. All animals were kept in a temperature-controlled (20–22° C.) environment with a 12-hour light-dark cycle (lights on at 7 a.m.). Separate mice were used for testing each drug dose in the in vivo behavioral procedures. Brain tissue for binding studies was obtained from male Sprague-Dawley rats (150–200 g) purchased from Harlan Laboratories (Dublin, Va.).
The methods used for tissue preparation and binding have been described previously (Compton et al., 1993) and are similar to those described by Devane et al. (1988). All assays, as described briefly below, were performed in triplicate, and the results represent the combined data from three to six individual experiments.
Following decapitation and rapid removal of the brain, whole brain was homogenized and centrifuged. The resulting pellet was termed P1. The supernatant was saved and combined with the two subsequent supernatants obtained from washing of the P1 pellet. The combined supernatant fractions were centrifuged, resulting in the P2 pellet. After further incubation and centrifuging, this pellet was resuspended in assay buffer to a protein concentration of approximately 2 mg/ml. The membrane preparation was quickly frozen in a bath solution of dry ice and 2-methylbutane (Sigma Chemical Co., St. Louis, Mo.), then stored at −80° C. for no more than 2 weeks. Prior to performing a binding assay an aliquot of frozen membrane was rapidly thawed and protein values determined by the method of Bradford (1976).
Binding was initiated by the addition of 150 μg of P2 membrane to test tubes containing 1 nM of [^3H] CP 55,940 (79 Ci/mmol) and a sufficient quantity of buffer to bring the total incubation volume to 1 ml. Nonspecific binding was determined by the addition of 1 μM unlabeled CP 55,940. Following incubation at 30° C. for 1 hr, binding was terminated by addition of ice cold buffer and vacuum filtration through pretreated filters in a 12-well sampling manifold (Millipore, Bedford, Mass.). After washing, filters were placed into plastic scintillation vials (Packard, Downer Grove, Ill.) and shaken. The quantity of radioactivity present was determined by liquid scintillation spectrometry.
(§2) In addition, multiple linear regression was used to calculate the overall degree of relationship between CB1 binding affinity and potency in the mouse measures for all active cannabinoids. […] Ki values for CB1 and CB2 binding were obtained from Scatchard displacement analysis as determined via EBDA program of the KELL software package (Biosoft, Milltown, N.J.).

[2] = target: T1, CB2 receptor (Homo sapiens, UniProt P34972); test: CB2 binding procedure: displacement of [3H]CP-55,940 from membranes of transfected CHO cells; settings: for CB1/CB2 (ratio of Ki): CB1 Ki divided by CB2 Ki; for Ki: means ± SEM, [3H]CP-55,940, transfected CHO cell membranes, read-out: Ki (nM) CB2
T1 construct: expressed in transfected cells; host or cells: CHO cells, G418-selected transfected line
T1 sequence (P34972 whole entry): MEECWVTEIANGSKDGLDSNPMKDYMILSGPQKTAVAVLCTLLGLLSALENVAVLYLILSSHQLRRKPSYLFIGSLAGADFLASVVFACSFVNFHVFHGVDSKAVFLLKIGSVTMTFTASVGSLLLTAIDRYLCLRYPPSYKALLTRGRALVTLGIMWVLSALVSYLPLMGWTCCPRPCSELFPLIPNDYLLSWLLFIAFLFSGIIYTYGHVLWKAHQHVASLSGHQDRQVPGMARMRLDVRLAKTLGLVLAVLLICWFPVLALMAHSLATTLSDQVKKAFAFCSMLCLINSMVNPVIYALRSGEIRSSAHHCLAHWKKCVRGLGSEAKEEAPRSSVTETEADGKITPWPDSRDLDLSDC
Method: Membranes for CB2 binding were obtained from CHO cells. The transfected cell line was maintained in Dublecco's Modified Eagle Medium (Gibco BRL, Grand Island, N.Y.) with 10% fetal clone II (HyClone Laboratories, Inc., Logan, Utah) plus 0.3 to 0.5 mg/ml G418 (to maintain selective pressure) under 5% CO2 at 37% C. Cells were harvested with 1 mM EDTA in phosphate-buffered saline and were centrifuged at 1000×g for 5 min at 4% C. The supernatant was saved and the P1 pellet was resuspended in centrifugation buffer. Homogenization and centrifugation were repeated twice and the combined supernatant fractions were centrifuged at 40,000×g for 30 min at 4% C. The P2 pellet was resuspended in centrifugation buffer 2 (Tris HCl, 50 mM; EDTA, 1 mM; and MgCl2, 3 mM, pH 7.4) to a protein concentration of approximately 2 mg/ml. Protein concentrations were determined by the method of Bradford (1976) using Bio-Rad Protein Assay (Bio-Rad, Richmond, Calif.) and BSA standards (fatty acid free, Sigma Chemical Co., St. Louis, Mo.). The membrane preparation was divided into amounts convenient for binding assays and frozen rapidly in dry ice and stored at −80% C.
Binding was initiated by the addition of 50 μg of quickly thawed P2 membranes to test tubes containing [^3H]CP-55,940 (final reaction concentration 0.5 nM), an appropriate concentration of unlabeled CP-55,940 or test drug, and sufficient quantity of assay buffer (50 mM Tris-HCl, 1 mM EDTA, 3 mM MgCl2, 5 mg/ml bovine serum albumin, pH 7.4) to bring the total incubation volume to 0.5 ml. Concentration of [^3H]CP-55,940 in saturation studies ranged from 50 to 10,000 pM. Nonspecific binding was determined by the addition of 1 μM unlabeled CP-55,940. CP-55,940 and all cannabinoid analogs were prepared by suspension in assay buffer from a 1 mg/ml ethanolic stock without evaporation of the ethanol (final concentration of no more than 0.4%). In competition studies, analog concentrations ranged from 0.1 nM to 10 μM. After incubation at 30% C for 1 hr, binding was terminated by the addition of 2 ml of ice-cold wash buffer (50 mM Tris-HCl and 1 mg/ml BSA) and vacuum filtration through pre-treated filters in a 12-well sampling manifold (Millipore, Bedford, Mass.). Reaction vessels were washed once with 2 ml of ice-cold wash buffer. Filters were placed into 7-ml plastic scintillation vials (RPI Corp., Mount Prospect, Ill.) with 4 ml of Budget-Solve (RPI Corp.). After shaking for 30 min, the radioactivity present was determined by liquid scintillation spectrometry. Three reaction vessels were used for each drug concentration in each assay. The results represent the combined data of three independent experiments. All assays were performed in siliconized test tubes, which were prepared by air drying (12 hr) inverted borosilicate tubes after two rinses with a 0.1% solution of AquaSil (Pierce, Rockford, Ill.). The GF/C glass-fiber filters (2.4 cm, Baxter, McGaw Park, Ill.) were pre-treated in a 0.1% solution of pH 7.4 polyethylenimine (Sigma Chemical Co.) for at least 6 hr.
as §2

[3] = test system: Male ICR mice; test: Change in rectal temperature (RT) in mice; assay type: in vivo, mouse; settings: for ED50: Mus musculus, iv; for R.T. effect at dose: @ 30 (mg/kg)
Method: as §1
(§3) Measurement of spontaneous activity in mice occurred in standard activity chambers interfaced with a Digiscan Animal Activity Monitor (Omnitech Electronics, Inc., Columbus, Ohio). A standard tail-flick apparatus and a digital thermometer (Fisher Scientific, Pittsburgh, Pa.) were used to measure antinociception and rectal temperature, respectively
(§4) Resorcinols were synthesized in our labs (Organix, Inc., Woburn, Mass.) according to the procedure specified below and were suspended in a vehicle of absolute ethanol, Emulphor-620 (Rhone-Poulenc, Inc., Princeton, N.J.), and saline in a ratio of 1:1:18. Drugs were administered to the mice intravenously (i.v.) in the tail vein at a volume of 0.1 ml/10 g.
(§5) Prior to testing in the behavioral procedures, mice were acclimated to the experimental setting (ambient temperature 22–24° C.) overnight. Pre-injection control values were determined for rectal temperature and tail-flick latency (in sec). […] Tail-flick latency was measured at 20 min post-injection. Maximum latency of 10 sec was used. Antinociception was calculated as percent of maximum possible effect {% MPE=[(test−control latency)/(10-control)]×100}. Control latencies typically ranged from 1.5 to 4.0 sec. At 30 min post-injection, rectal temperature was measured This value was expressed as the difference between control temperature (before injection) and temperatures following drug administration (° C.). Different mice (n=5–6 per dose) were tested for each dose of each compound. Each mouse was tested in each of the 3 procedures.
(§6) Based on data obtained from numerous previous studies with cannabinoids, maximal cannabinoid effects in each procedure were estimated as follows: 90% inhibition of spontaneous activity, 100% MPE in the tail flick procedure, and −6° C. change in rectal temperature. ED50's were defined as the dose at which half maximal effect occurred. For drugs that produced one or more cannabinoid effect, ED50's were calculated separately using least-squares linear regression on the linear part of the dose-effect curve for each measure in the mouse tetrad, plotted against log10 transformation of the dose. For the purposes of potency comparison, potencies were expressed as μmol/kg.

[4] = test system: Male ICR mice; test: Suppression of spontaneous activity (SA) in mice; assay type: in vivo, mouse; settings: for ED50: Mus musculus, iv; for S.A % effect at dose: @ 30 (mg/kg)
Method: as §1, §3, §4, §5, §6

[5] = test system: Male ICR mice; test: Tail-flick antinociception (TF, % MPE) in mice; assay type: in vivo, mouse; settings: for ED50: Mus musculus, iv; for T.F. % effect at dose: @ 30 (mg/kg)
Method: as §1, §3, §4, §5, §6

[6] = mice, i.v., 95% confidence limits in parentheses

Sequence of CB1 receptor (P20272 whole entry): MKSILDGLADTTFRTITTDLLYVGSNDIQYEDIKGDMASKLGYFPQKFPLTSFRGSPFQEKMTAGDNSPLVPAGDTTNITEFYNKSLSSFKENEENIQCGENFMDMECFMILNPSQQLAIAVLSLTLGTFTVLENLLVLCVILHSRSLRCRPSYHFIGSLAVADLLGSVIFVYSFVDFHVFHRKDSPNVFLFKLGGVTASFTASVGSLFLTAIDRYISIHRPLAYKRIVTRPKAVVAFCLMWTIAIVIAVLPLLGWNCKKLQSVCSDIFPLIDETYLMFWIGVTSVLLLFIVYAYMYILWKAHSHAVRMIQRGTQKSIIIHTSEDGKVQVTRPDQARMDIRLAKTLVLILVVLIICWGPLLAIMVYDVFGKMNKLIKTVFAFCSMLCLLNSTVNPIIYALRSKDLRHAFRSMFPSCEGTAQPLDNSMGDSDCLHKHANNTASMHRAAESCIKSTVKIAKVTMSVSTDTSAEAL

Row | Structure (SMILES) | Ki [1] | CB1/CB2 (ratio of Ki) [2] | Ki [2] | R.T. effect at dose ([3]; Table 6) | S.A % effect at dose ([4]; Table 6) | T.F. % effect at dose ([5]; Table 6) | other results
1 | CCCCCCC(C)(C)c1cc(O)c(C2CCCC(C)C2)c(O)c1 (single isomer, unassigned) [O-1798B, 2-(3-Methylcyclohexyl)-5-(1′,1′-dimethylheptyl)-resorcinolisomer B] | 4 ± 0.6 nM | 8 | 0.5 ± 0.07 nM | – | – | – | R.T. ED50 ([3]; Table 6, mice, i.v.): 0.218 mg/kg; ED50 RT (rectal temperature) [3, 6]: 0.6(0.5–0.7) μmol/kg; S.A ED50 ([4]; Table 6, mice, i.v.): 0.070 mg/kg; ED50 SA (suppression of spontaneous activity) [4, 6]: 0.2(0.03–1.2) μmol/kg; T.F. ED50 ([5]; Table 6, mice, i.v.): 0.379 mg/kg; ED50 TF (antinociceptive effect in tail flick assay) [5, 6]: 1.0(0.7–1.6) μmol/kg
2 | CCCCCCC(C)(C)c1cc(O)c(C2CCCC2)c(O)c1 [O-1424, 2-(Cyclopentyl)-dimethylheptyl-resorcinol] | 95 ± 6 nM | – | 7 ± 0.4 nM | – | – | – | ED50 ([3]; Table 6, mice, i.v., read-out: R.T. ED50): 4.24 mg/kg; ED50 ([3]; mice, i.v., 95% confidence limits in parentheses, read-out: ED50 RT (rectal temperature)): 13 µmol/kg; ED50 ([4]; Table 6, mice, i.v., read-out: S.A ED50): 8.29 mg/kg; ED50 ([4]; mice, i.v., 95% confidence limits in parentheses, read-out: ED50 SA (suppression of spontaneous activity)): 27 µmol/kg; ED50 ([5]; Table 6, mice, i.v., read-out: T.F. ED50): 4.48 mg/kg; ED50 ([5]; mice, i.v., 95% confidence limits in parentheses, read-out: ED50 TF (antinociceptive effect in tail flick assay)): 13 µmol/kg
3 | CCCCCCC(C)(C)c1cc(OC)c(C2CCCC(C)C2)c(OC)c1 (centres unmarked) [O-1999] | > 10000 nM | – | 466 ± 110 nM | 1 @ 30 °C | 4 @ 30% | 6 @ 30% | fold decrease in CB2 affinity ([2]; relative to the comparator analog): ~600 fold
4 | CCCCCCC(C)(C)c1cc(OC)c(C2(O)CCCC(C)C2)c(OC)c1 (single isomer, unassigned; isomer 2) [O-1967B, 1-(4-(1,1-Dimethylheptyl-2,6-dimethoxy-phenyl)-3-methyl-cyclohexaol isomer 2] | 1720 ± 105 nM | 15 | 111 ± 8 nM | 0 @ 30 °C | 42.9 @ 30% | 8.2% @ 30 | –
5 | CCCC(C)(C)c1ccc(-c2cc(C)ccc2C(C)C)c(O)c1 [O-1532] | 876 ± 18 nM | 8 | 113 ± 21 nM | – | – | – | RT effect at the highest dose (change in rectal temperature) ([3]; mice, i.v., 30 mg/kg): −0.4 °C; SA percent effect at the highest dose ([4]; mice, i.v., 30 mg/kg, % inhibition of activity of vehicle group): 32%; TF percent effect (% MPE) at the highest dose ([5]; mice, i.v., 30 mg/kg): 7%
